# Experimental data taken from patent publication US20260217701A1, “SELECTIVE BET INHIBITORS AND USES THEREOF” (Tay Therapeutics Limited, priority 2022, published 2026).
# Marks after values point to notes of the source that are not given here.
# What was measured:
# [1] = tested on: idiopathic pulmonary fibrosis (bleomycin); experiment: Bleomycin IPF model: functional lung volume by micro-CT; assay type: in vivo, C57BI/6J mice; set-up: Functional Lung Volume, Mean: unit not given here; settings: Day 21
# Protocol: Animals were acclimated for two weeks prior to study initiation, and were randomized into the experimental groups outlined in Table 32. Intratracheal (IT) administration of Bleo or PBS control was conducted at the start of the study (Day 0). […] Following administration of Bleo, animals (n=10/group) were included in the study if they met the following guidelines on Day 7: […] Micro-CT imaging was also performed on Day 7 to determine relative fibrosis and on Day 21. […] Images were acquired with a respiratory gated technique with the following parameters: X-ray tube voltage: 90 KV; X-ray tube current: 88 μA; total scan time: 4 minutes. The system was calibrated monthly with standard phantoms for noise, uniformity, low contrast, and resolution to ensure consistency.
# lupus = experiment: SLE (lupus) model: kidney and spleen weight; assay type: in vivo, MRL/MpJ-Faslpr mice; settings: Week 19
# Protocol: Female MRL/MpJ-Faslpr mice (The Jackson Laboratory) were used to assess the efficacy of Compound A in treating lupus. Starting when animals were 10 weeks of age, protein concentration in urine was measured using urine dipsticks.
# At the start of the study, each group in the study had two animals that were 9 weeks old, and all others were 10 weeks old. Dosing of all animals with the test compounds began when the older animals were 11 weeks old. […] […] Dosing was at a consistent time each dosing day throughout the study.
# Compound A may be formulated as illustrated in Experimental Method A (see Table 2E.). […] A stock solution of Compound A in DMSO (stock solution concentration of Compound A of 40 mg/mL) was prepared and aliquots for weekly preparations were frozen at −20° C. On each preparation day, a stock solution aliquot was thawed and diluted with other vehicle components to the desired concentration. Formulated Compound A and vehicle were at room temperature for dosing.
# The study began when the older animals were 11 weeks old, and concluded when the older animals were 19 weeks old. Body weight was recorded once a week, with the exception of two weight measurements taken the first week of the study (when the older animals were 11 weeks old). Proteinuria was measured in the urine of animals with urine dipsticks once a week, starting when the older animals were 10 weeks old. […] Blood samples were taken retro-orbitally at the start of the study to establish a baseline (15 animals, 3 per group), and when the older animals were 16 weeks (all animals) and when animals were 19 weeks (all animals) at the conclusion of the study. Blood urea nitrogen (BUN) was measured in all animals at study termination in blood samples. After blood collection, animals were euthanized, perfused with PBS, and the left kidneys were collected and weighed and fixed in 10% buffered formalin. Left kidneys were then processed to a formalin-fixed, paraffin-embedded (FFPE) block, and histology was analyzed in Periodic Acid-Schiff-stained sections (1 section per slide), using the criteria described in Alperovich et al., Lupus, 16:18-24 (2007). Right kidneys were weighed and snap-frozen at −80° C. Spleens were also collected and weighed. SLE in animals treated with a BET inhibitor and vehicle.
# [2] = tested on: IL-22, IFNγ, TNF, IL-17A, IL-12/IL-23p40; experiment: EAE study: serum cytokine analysis (Luminex); assay type: in vivo, C57BI/6 mice
# Protocol: Experimental Method H: EAE in animals treated with a BET inhibitor and vehicle. Animals were assigned to the groups outlined in Table 38.
# Compound A may be formulated as illustrated in Experimental Method A (see Table 2E.). A 40 mg/mL stock solution of Compound A in DMSO was prepared and aliquots stored at −20° C. On each day of preparation an e.g., 0.75 mL aliquot of thawed stock was diluted with an equal volume of DMSO. The remaining vehicle components were added to provide the highest dose and then diluted with vehicle to provide lower doses. A 30 mg/mL stock solution of FTY720 in ethanol was prepared and stored at −20° C. Daily, the stock solution was diluted with room temperature water to a final dosing concentration of 0.6 mg/mL. Formulated Compound A, FTY720 and vehicle were each at room temperature for dosing.
# Female C57BI/6 mice (9 weeks old) were acclimated for seven days prior to study initiation. On Day-1, animals were assigned to groups in a balanced manner to achieve similar average weights across the different groups. Chronic EAE was induced in female C57BI/6 mice following immunization with an emulsion of MOG35-55/CFA on Day 0, followed by an injection of pertussis toxin two hours after the initial immunization. On Day 1, a second injection of pertussis toxin was administered 24 hours after the initial immunization. Mice were injected subcutaneously at two sites on the back with the MOG35-55/CFA emulsion (Hooke Kit™ MOG35-55/CFA Emulsion PTX). The first injection site was located approximately 1 cm caudal of the neckline (upper back), and the second injection site was approximately 2 cm cranial of the base of the tail (lower back). The injection volume was 0.1 mL for each injection. The pertussis toxin was administered at the described times through intraperitoneal injection at a concentration of 85 ng/dose for both injections.
# On Day 28, all surviving mice except those in the FTY720 group had blood collected via retro-orbital sinus into serum separator tubes. Serum was isolated, frozen on dry ice, and stored at −80° C. for cytokine analysis. Cytokine analysis was performed using Luminex in serum samples, and the cytokines IL-22, IFNγ, TNF, IL-17A, IL-12/IL-23p40 were assessed.
compound,measurement,setting,value
"Cn1cc(-c2ccccc2)c(-c2cn(C)c(=O)c3[nH]c(-c4cnn(C(F)(F)F)c4)cc23)cc1=O [Compound A, 6-methyl-4-(1-methyl-2-oxo-5-phenyl-1,2-dihydropyridin-4-yl)-2-(1-(trifluoromethyl)-1H-pyrazol-4-yl)-1,6-dihydro-7H-pyrrolo[2,3-c]pyridin-7-one]","Functional Lung Volume, Mean",[1]; Bleo + Compound A (1 mg/kg) OG QOD from D7,283.165
same,"Functional Lung Volume, Mean",[1]; Bleo + Compound A (3 mg/kg) OG QOD from D7,343.5975
same,"Functional Lung Volume, Mean",[1]; Bleo + Compound A (10 mg/kg) OG QOD from D7,452.7838
same,Mean improvement in functional lung volume compared to Group 2,"[1]; Group 5, 10 mg/kg",~52.7%
same,Mean Kidney Weight,lupus; Compound A 1 mg/kg PO QD,245 mg
same,Mean Spleen Weight,lupus; Compound A 1 mg/kg PO QD,241 mg
same,Mean Kidney Weight,lupus; Compound A 3 mg/kg PO QD,245 mg
same,Mean Spleen Weight,lupus; Compound A 3 mg/kg PO QD,361 mg
same,Mean Kidney Weight,lupus; Compound A 10 mg/kg PO QD,225 mg
same,Mean Spleen Weight,lupus; Compound A 10 mg/kg PO QD,170 mg
same,Kidney weights relative to controls,lupus; Compound A (10 mg/kg) and cyclophosphamide groups,slightly decreased kidney weights
same,Spleen weights relative to vehicle controls,lupus; Compound A (all tested doses) and cyclophosphamide,decreased spleen weights
same,IFNγ Mean Concentration (pg/mL) and (SEM),"[2]; Compound A 1 mg/kg, Day 28",1.9 (0.8) pg/mL
same,IL-12/IL-23p40 Mean Concentration (pg/mL) and (SEM),"[2]; Compound A 1 mg/kg, Day 28",34.7 (4.8)* pg/mL
same,IL-17A Mean Concentration (pg/mL) and (SEM),"[2]; Compound A 1 mg/kg, Day 28",0.5 (0.3) pg/mL
same,IL-22 Mean Concentration (pg/mL) and (SEM),"[2]; Compound A 1 mg/kg, Day 28",3.5 (1.4) pg/mL
same,TNF Mean Concentration (pg/mL) and (SEM),"[2]; Compound A 1 mg/kg, Day 28",0.8 (0.4) pg/mL
same,IFNγ Mean Concentration (pg/mL) and (SEM),"[2]; Compound A 3 mg/kg, Day 28",1.8 (0.4)* pg/mL
same,IL-12/IL-23p40 Mean Concentration (pg/mL) and (SEM),"[2]; Compound A 3 mg/kg, Day 28",27.7 (4.9)** pg/mL
same,IL-17A Mean Concentration (pg/mL) and (SEM),"[2]; Compound A 3 mg/kg, Day 28",1.6 (0.9) pg/mL
same,IL-22 Mean Concentration (pg/mL) and (SEM),"[2]; Compound A 3 mg/kg, Day 28",6.1 (3.0) pg/mL
same,TNF Mean Concentration (pg/mL) and (SEM),"[2]; Compound A 3 mg/kg, Day 28",1.4 (0.4) pg/mL
same,IFNγ Mean Concentration (pg/mL) and (SEM),"[2]; Compound A 10 mg/kg, Day 28",0.6 (0.1)*** pg/mL
same,IL-12/IL-23p40 Mean Concentration (pg/mL) and (SEM),"[2]; Compound A 10 mg/kg, Day 28",17.4 (1.5)*** pg/mL
same,IL-17A Mean Concentration (pg/mL) and (SEM),"[2]; Compound A 10 mg/kg, Day 28",0.4 (0.3) pg/mL
same,IL-22 Mean Concentration (pg/mL) and (SEM),"[2]; Compound A 10 mg/kg, Day 28",3.0 (0.7) pg/mL
same,TNF Mean Concentration (pg/mL) and (SEM),"[2]; Compound A 10 mg/kg, Day 28",0.4 (0.1) pg/mL
same,"Concentration of IL-22, TNF, and IL-17A relative to vehicle",[2]; Day 28,nor were significant changes measured
same,Concentration of IL-12/IL23p40,"[2]; Day 28, 1 mg/kg, 3 mg/kg, and 10 mg/kg",dose dependent significant decreases
same,IFNγ concentrations,"[2]; Day 28, 3 mg/kg and 10 mg/kg",dose dependent significant decrease
